From PMC8975978, “Bioassay-guided isolation of cytotoxic constituents from the flowers of Aquilaria sinensis” (Natural Products and Bioprospecting, 2022)
Like-named read-outs stand apart in the source and are kept apart here.

Legend:
[1] = test system: human ovarian carcinoma SK-OV-3 cells; assay: MTS cytotoxicity assay, SK-OV-3; format: cell-based; conditions: Table 1, SK-OV-3
Method: (§1) It had better inhibition against lung cancer cell lines than against other cancer cell lines (Table 1). Thus, the next bioactivity-guided separations were conducted according to the cytotoxicities of the fractions against lung cancer cell lines (A-549, NCI-H520, and SPC-A-1), as well as normal BEAS-2B cells and paclitaxel-resistant lung cancer A549/Taxol cells.
(§2) The cytotoxicity activities were evaluated by MTS assay as previously described.

[2] = test system: human prostate cancer PC-3 cells; assay: MTS cytotoxicity assay, PC-3; format: cell-based; conditions: Table 1, PC-3
Method: as §1, §2

[3] = test system: human neuroblastoma SH-SY5Y cells; assay: MTS cytotoxicity assay, SH-SY5Y; format: cell-based; conditions: Table 1, SH-SY5Y
Method: as §1, §2

[4] = test system: human lung adenocarcinoma SPC-A-1 cells; assay: MTS cytotoxicity assay, SPC-A-1; format: cell-based
Method: as §1, §2

[5] = test system: human leukemia HL-60 cells; assay: MTS cytotoxicity assay, HL-60; format: cell-based; conditions: Table 1, HL-60
Method: as §1, §2

[6] = test system: human large cell lung carcinoma NCI-H460 cells; assay: MTS cytotoxicity assay, NCI-H460; format: cell-based; conditions: Table 1, NCI-H460
Method: as §1, §2

[7] = test system: human lung adenocarcinoma A549 cells; assay: MTS cytotoxicity assay, A549; format: cell-based
Method: as §1, §2

[8] = test system: human hepatoma SMMC-7721 cells; assay: MTS cytotoxicity assay, SMMC-7721; format: cell-based; conditions: Table 1, SMMC-7721
[9] = test system: human breast cancer MDA-MB-231 cells; assay: MTS cytotoxicity assay, MDA-MB-231; format: cell-based; conditions: Table 1, MDA-MB-231
Method: as §1, §2

[10] = test system: human T-cell leukemia MT4 cells; assay: MTS cytotoxicity assay, MT4; format: cell-based; conditions: Table 1, MT4
Method: as §1, §2

[11] = test system: human normal bronchial epithelial BEAS-2B cells; assay: MTS cytotoxicity assay, normal BEAS-2B; format: cell-based
Method: as §1, §2

[12] = test system: human cervical cancer HeLa cells; assay: MTS cytotoxicity assay, HeLa; format: cell-based; conditions: Table 1, HeLa
Method: as §1, §2

[13] = test system: human breast cancer MCF-7 cells; assay: MTS cytotoxicity assay, MCF-7; format: cell-based; conditions: Table 1, MCF-7
Method: as §1, §2

[14] = test system: human small cell lung cancer NCI-H446 cells; assay: MTS cytotoxicity assay, NCI-H446; format: cell-based; conditions: Table 1, NCI-H446
Method: as §1, §2

[15] = test system: human lung squamous cell carcinoma NCI-H520 cells; assay: MTS cytotoxicity assay, NCI-H520; format: cell-based
Method: as §1, §2

[16] = test system: human colon cancer SW-480 cells; assay: MTS cytotoxicity assay, SW480; format: cell-based; conditions: Table 1, SW480
Method: as §1, §2

[17] = test system: paclitaxel-resistant A549 (A549/Taxol) cells; assay: MTS cytotoxicity assay, A549/Taxol; format: cell-based, human
Method: as §1, §2

[18] = test system: SPC-A-1, NCI-H520, A549 and A549/Taxol cell lines; assay: MTS cytotoxicity assay, four tested lung cancer cell lines together; format: cell-based, human
Method: Thus, the next bioactivity-guided separations were conducted according to the cytotoxicities of the fractions against lung cancer cell lines (A-549, NCI-H520, and SPC-A-1), as well as normal BEAS-2B cells and paclitaxel-resistant lung cancer A549/Taxol cells.
Isolates 1–6 were evaluated for their cytotoxicities against SPC-A-1, NCI-H520, A549, A549/Taxol, and BEAS-2B cell lines (Table 5).
as §2

[19] = Table 5, SPC-A-1, read-out: IC50
[20] = Table 5, NCI-H520, read-out: IC50
[21] = Table 5, A549/Taxol, read-out: IC50
[22] = Homo sapiens, SPCA1, Table 5, SPC-A-1, read-out: IC50
[23] = Homo sapiens, A549, Table 5, A549, read-out: IC50
[24] = Homo sapiens, Table 5, BEAS-2B normal cells, read-out: IC50
[25] = Homo sapiens, NCI-H520, Table 5, NCI-H520, read-out: IC50
[26] = Homo sapiens, A549/Taxol, Table 5, A549/Taxol, read-out: IC50

N.N.[Cl][Pt][Cl] [Cisplatin]
IC50 [1]: 3.67 ± 0.97 µg/mL | IC50 [2]: 1.38 ± 0.23 µg/mL | IC50 [3]: 2.85 ± 0.272 µg/mL | IC50 ([4]; Table 1, SPC-A-1): 1.76 ± 0.40 µg/mL | IC50 ([4]; Table 2, SPC-A-1): 3.10 ± 0.13 µg/mL | IC50 ([4]; Table 3, SPC-A-1): 3.06 ± 1.07 µg/mL | IC50 ([4]; Table 4, SPC-A-1): 2.49 ± 0.07 µg/mL | IC50 [4, 19]: 21.4 ± 0.35 µM | IC50 [5]: 1.97 ± 1.30 µg/mL | IC50 [6]: 5.29 ± 0.48 µg/mL | IC50 ([7]; Table 1, A549): 3.83 ± 0.79 µg/mL | IC50 ([7]; Table 2, A-549): 4.99 ± 0.08 µg/mL | IC50 ([7]; Table 3, A549): 3.02 ± 0.59 µg/mL | IC50 ([7]; Table 4, A549): 2.28 ± 0.57 µg/mL | IC50 ([7]; Table 5, A549, read-out: IC50): 13.5 ± 0.64 µM | IC50 [8]: 1.53 ± 0.11 µg/mL | IC50 [9]: 3.16 ± 0.97 µg/mL | IC50 [10]: 0.16 ± 0.01 µg/mL | IC50 ([11]; Table 1, BEAS-2B normal cells): 9.14 ± 1.41 µg/mL | IC50 ([11]; Table 2, BEAS-2B normal cells): 7.36 ± 0.56 µg/mL | IC50 ([11]; Table 3, BEAS-2B normal cells): > 12 µg/mL | IC50 ([11]; Table 4, BEAS-2B normal cells): 8.86 ± 1.32 µg/mL | IC50 ([11]; Table 5, BEAS-2B normal cells, read-out: IC50): 34.9 ± 1.16 µM | IC50 [12]: 1.14 ± 0.152 µg/mL | IC50 [13]: 2.00 ± 0.93 µg/mL | IC50 [14]: 3.78 ± 0.79 µg/mL | IC50 ([15]; Table 1, NCI-H520): 6.69 ± 1.46 µg/mL | IC50 ([15]; Table 2, NCI-H520): 3.12 ± 0.18 µg/mL | IC50 ([15]; Table 3, NCI-H520): 3.75 ± 0.52 µg/mL | IC50 ([15]; Table 4, NCI-H520): 3.11 ± 0.22 µg/mL | IC50 [15, 20]: 12 ± 0.6 µM | IC50 [16]: 2.00 ± 0.52 µg/mL | IC50 ([17]; Table 2, A549/Taxol): 4.29 ± 0.26 µg/mL | IC50 ([17]; Table 3, A549/Taxol): 3.41 ± 0.47 µg/mL | IC50 ([17]; Table 4, A549/Taxol): 4.13 ± 0.86 µg/mL | IC50 [17, 21]: 15 ± 0.93 µM

CC(=O)OC(C)(C)C=CC(=O)C(C)(O)C1C(O)CC2(C)C3CC=C4C(CC(=O)OC4(C)C)C3(C)C(=O)CC12C (centres unmarked) [Compound 1, aquilarolide A]
IC50 [4, 22]: 0.56 ± 0.02 µM | IC50 [7, 23]: 0.35 ± 0.06 µM | IC50 [11, 24]: 17.9 ± 0.3 µM | IC50 [15, 25]: 0.16 ± 0.01 µM | IC50 [17, 26]: 0.2 ± 0.01 µM

CC(=O)OC(C)(C)CCC(=O)[C@](C)(O)[C@H]1[C@H](O)C[C@@]2(C)[C@@H]3CC=C4[C@@H](C=C(O)C(=O)C4(C)C)[C@]3(C)C(=O)C[C@]12C [Compound 2, 23,24-dihydrocucurbitacin E]
IC50 [4, 22]: > 40 µM | IC50 ([18]; four tested cancer cell lines taken together (SPC-A-1, NCI-H520, A549, A549/Taxol)): inactive | IC50 [7, 23]: > 40 µM | IC50 [11, 24]: > 40 µM | IC50 [15, 25]: > 40 µM | IC50 [17, 26]: > 40 µM

CC(=O)OC(C)(C)/C=C/C(=O)[C@](C)(O)[C@H]1[C@H](O)C[C@@]2(C)[C@@H]3CC=C4[C@@H](C=C(O)C(=O)C4(C)C)[C@]3(C)C(=O)C[C@]12C [Compound 3, cucurbitacin E]
IC50 ([4]; Table 5, SPC-A-1, listed as Cucurbitacin E, read-out: IC50): ≤ 0.02 µM | IC50 [4, 19]: 0.005 µM | IC50 ([18]; Homo sapiens): ≤ 0.03 µM | IC50 [7, 23]: ≤ 0.02 µM | IC50 ([7]; Table 5, A549, read-out: IC50): 0.02 µM | IC50 [11, 24]: 3.46 ± 0.13 µM | IC50 ([15]; Table 5, NCI-H520, listed as Cucurbitacin E, read-out: IC50): ≤ 0.02 µM | IC50 [15, 20]: 0.001 µM | IC50 ([17]; Table 5, A549/Taxol, listed as Cucurbitacin E, read-out: IC50): ≤ 0.02 µM | IC50 [17, 21]: 0.002 µM

COc1cc(O)c2c(c1)O[C@H](c1ccc(O)cc1)CC2=O [Compound 5, (−)-(2S)-5,4ʹ-dihydroxy-7-methoxyflavanone]
IC50 [4, 22]: > 40 µM | IC50 ([7]; Homo sapiens, Table 5, A549, read-out: IC50): > 40 µM | IC50 ([11]; Homo sapiens, BEAS-2B, Table 5, BEAS-2B normal cells, read-out: IC50): > 40 µM | IC50 ([15]; Homo sapiens, Table 5, NCI-H520, read-out: IC50): > 40 µM | IC50 [17, 26]: > 40 µM
